{"source": "patent EP4342530A1", "about": "“SORTILIN MODULATORS” (Insusense ApS, priority 2022, dated 2024)", "key": {"in vitro [1]": {"assay": "in vitro", "assay_type": "in vitro ADME", "conditions": "mouse, brain homogenate, pH 7.4", "experimental": "(§1) Plasma protein binding and brain homogenate binding for study compounds in mouse, dog, and rat by rapid equilibrium dialysis\n(§2) In practice, unbound fractions in plasma and brain tissue were assessed using rapid equilibrium dialysis in vitro. Separately a pharmacokinetic study was run in vivo whereby a dose of the compound of interest was given at T=0 hours and at subsequent timepoints (eg 0.5, 1 and 4 hours) plasma and separately brain samples were analysed for total concentration of the compound of interest. These total concentrations could then be adjusted with the unbound fraction to give the unbound concentrations in the plasma and brain.\n(§3) The test compounds were incubated in plasma and brain homogenate from the relevant species at 37 °C in RED device with inserts (8K MWCO, Thermo scientific) for 4 hours at 5 µM in triplicates. 350 µL of 150 mM phosphate buffered saline (PBS, pH 7.4) was used as the receiver side solutions. […] After 10-minute centrifugation at 13 200 rpm, the sample supernatants were analysed with an LC-MS/MS, to obtain the unbound fraction of the test compound (Fub). The unbound fraction was calculated from the peak area ratios obtained for each matrix: Fub = CPBS /Cplasma; [formula] where CPBS and Cplasma are the analyte concentrations in PBS (receiver) and plasma (donor), respectively. […]"}, "[2]": {"assay": "Blood-brain-barrier permeability in mice after IV administration", "conditions": "3 mg/kg intravenously, 0.5 hours after dosing", "protocol": "(§4) The compound is administered to the animal in a suitable vehicle at T=0 hours. At 0.5 hours post administration plasma and separately brain are removed, prepared and analysed for total compound concentration.\n(§5) Temperature: 45 °C Injection Volume: 1.5 µl for brain, 4 µl for plasma Ion Source: ESI+, SRM detection\n(§6) The unbound partition coefficient (Kpuu) was determined as a ratio between the free compound concentrations in plasma and brain: Kpuu = (Cub,brain)/(Cub,plasma) [formula]\n(§7) Where Cu,brain = unbound concentration in brain (C × Fub, brain); wherein • C = concentration at steady state; and • Cub,plasma = unbound concentration in plasma (C × Fub)."}, "in vitro [3]": {"assay": "in vitro", "assay_type": "in vitro ADME", "conditions": "mouse, plasma, pH 7.4", "experimental": "as §1, §2, §3"}, "in vivo": {"assay": "in vivo", "conditions": "male, CD1 (ICR), mouse", "protocol": "as §4, §5, §6, §7"}}, "note": "Values joined by “and” are separate entries in the source; they are usually repeats but may differ in a detail not shown here. Identical values can stand only once.", "data": [{"smiles": "Cc1cccc(NC(=O)c2ccc(C(F)(F)F)cc2C(=O)O)n1", "note": "[Comparative Example 1]", "values": [{"measurement": "fraction unbound at 4 h, 5 µM", "setting": "in vitro [1]", "result": 0.273}, {"measurement": "Brain to plasma ratio %", "setting": "[2]", "result": "<1", "unit": "%"}, {"measurement": "fraction unbound at 4 h, 5 µM", "setting": "in vitro [3]", "result": 0.068}, {"measurement": "Kp uu at 0.5 h", "setting": "in vivo", "result": "< 0.1"}, {"measurement": "Kp at 0.5 h", "setting": "in vivo; 3 mg/kg", "result": "< 0.01"}, {"measurement": "concentration at 0.5 h", "setting": "in vivo; 3 mg/kg", "result": "3090 ng/mL and 5 ng/g"}]}]}
